Holding throughout (type): cell-based
The subject of one assay is E. cloacae P 99. Kind of assay: Antibacterial activity in vitro (MIC, standard agar method). To be noted: Enterobacter cloacae, P99, 20 h, read-out: Minimum inhibitory concentration (MIC). The procedure:
(§1) The minimum inhibitory concentration (MIC) of the substances investigated against gram-positive and gram-negative strains was determined using standard agar methods. The compounds were dissolved in a small amount of dimethyl sulphoxide, diluted with water and incorporated into liquified DST agar at 50° C. The thus-produced agar plates were used immediately thereafter in the test. The test concentrations lay between 128 and 0.06 μg/ml. The bacterial inoculation solutions were prepared from pre-cultures grown overnight, diluted and applied to the agar surface using an inoculation device (Denley A400). The plates were incubated at 35° C. for 20 hours. The MIC was determined as the lowest concentration of substance which prevented a visible growth. A scarcely visible turbidity and the growth of less than 5 colonies were ignored. The determinations of the antibacterial activities (Tab. 1) were carried out not only for the free bases, but also for the hydrochloride salt of each compound. The same values were obtained within experimental error.

The subject of a further assay is P. aeroginosa BA. The description is as above. The note with it: DST agar, 35° C., 20 hours, read-out: Minimum inhibitory concentration (MIC). As to the method: as §1
In a further assay the test system is P. aeruginosa 799/61. The description is as above. To be noted: Pseudomonas aeruginosa, read-out: Minimum inhibitory concentration (MIC). The procedure: as §1
A further assay deals with E. coli B. Described as above. To be noted: Escherichia coli, DST agar, 35° C., 20 hours, read-out: Minimum inhibitory concentration (MIC). As to the method: as §1
In the next assay the test system is E. coli 1346. The description is as above. To be noted: Escherichia coli, DST agar, 35° C., 20 hours, read-out: Minimum inhibitory concentration (MIC). The procedure:
as §1

A further assay has as its system Staph. aureus 25923. The assay is described as above. To be noted: Staphylococcus aureus, DST agar, 35° C., 20 hours, read-out: Minimum inhibitory concentration (MIC). The procedure:
as §1

The subject of the next assay is E. coli 1527 E. Described as above. The note with it: Escherichia coli, read-out: Minimum inhibitory concentration (MIC). As to the method:
as §1

A further assay concerns E. faecalis 6. The description is as above. To be noted: read-out: Minimum inhibitory concentration (MIC). As to the method:
as §1

Assay [1] concerns E. coli K12 KEA-12 (GyrA). The assay is described as above. The note with it: Escherichia coli, 20 h, read-out: Minimum inhibitory concentration (MIC). As to the method: as §1
The next assay has as its system P. aeroguinosa 3351. Described as above. The note with it: read-out: Minimum inhibitory concentration (MIC). As to the method: as §1
For another assay, the system named is K. oxytoca 1082E. The assay is described as above. To be noted: Klebsiella oxytoca, DST agar, 35° C., 20 hours, read-out: Minimum inhibitory concentration (MIC). As to the method: as §1
The next assay has as its system S. marcescens. The description is as above. To be noted: Serratia marcescens, read-out: Minimum inhibitory concentration (MIC). As to the method: as §1
A further assay deals with E. coli 159 R. The assay is described as above. To be noted: Escherichia coli; E. coli 159 R; DST agar, 35° C., 20 hours; read-out: Minimum inhibitory concentration (MIC). As to the method:
as §1

A further assay deals with S. aureus 853. Described as above. The note with it: Staphylococcus aureus, DST agar, 35° C., 20 hours, read-out: Minimum inhibitory concentration (MIC). As to the method: as §1
Another assay has as its system E. coli DC2. The description is as above. The note with it: Escherichia coli; E. coli DC2; DST agar, 35° C., 20 hours; read-out: Minimum inhibitory concentration (MIC). The procedure: as §1
A further assay concerns Staph. aureus 887. The assay is described as above. The note with it: Staphylococcus aureus, DST agar, 35° C., 20 hours, read-out: Minimum inhibitory concentration (MIC). As to the method: as §1
The test system of a further assay is S. aureus 101. The assay is described as above. The note with it: Staphylococcus aureus, DST agar, 35° C., 20 hours, read-out: Minimum inhibitory concentration (MIC). The procedure: as §1
The next assay deals with E. coli AS-19. The description is as above. The note with it: Escherichia coli, AS19, DST agar, 35° C., 20 hours, read-out: Minimum inhibitory concentration (MIC). The procedure:
as §1

The subject of another assay is B. subtilis ATCC 585369. Described as above. The note with it: Bacillus subtilis, ATCC585369, DST agar, 35° C., 20 hours, read-out: Minimum inhibitory concentration (MIC). As to the method: as §1
The next assay deals with S. haemolyticus 91. Described as above. The note with it: Staphylococcus haemolyticus, DST agar, 35° C., 20 hours, read-out: Minimum inhibitory concentration (MIC). As to the method: as §1
The subject of the next assay is E. coli H560. The assay is described as above. To be noted: Escherichia coli, read-out: Minimum inhibitory concentration (MIC). As to the method:
as §1

Another assay relates to E. coli 25922. The description is as above. To be noted: Escherichia coli; E. coli 25922; DST agar, 35° C., 20 hours; read-out: Minimum inhibitory concentration (MIC). As to the method: as §1
Another assay relates to Staph. haemolyticus 75. Described as above. To be noted: Staphylococcus haemolyticus, DST agar, 35° C., 20 hours, read-out: Minimum inhibitory concentration (MIC). The procedure: as §1
The test system of assay [2] is Helicobacter pylori K 1585. The experiment in a line: Antibacterial activity against Helicobacter pylori in vitro (MIC, agar method). To be noted: K1585, H. pylori K 1585, Muller-Hinton agar, 5% sheep blood, incubation 4 days, read-out: Minimum inhibitory concentration (MIC). The procedure:
as §1
(§2) The antibacterial activities against Helicobacter pylori were carried out analogously to the method described above with the following variations: The compounds were incorporated into Muller-Hinton agar containing 5% sheep blood additive. The test concentrations lay between 10 and 0.1 μg/ml. […]

Assay [3] concerns Helicobacter pylori PH 81. The description is as above. To be noted: PH81, H. pylori PH 81, Muller-Hinton agar, 5% sheep blood, incubation 7 days, read-out: Minimum inhibitory concentration (MIC). As to the method:
as §1, §2

We go through two compounds from patent US5824698A, “Antibacterial dibenzimidazole derivatives” (priority 1994, dated 1998).

The structures appear in SMILES notation. Converted amounts (≈) assume the structure as drawn. Counter-ions that a name gives are not always drawn. Like-named read-outs stand apart in the source and are kept apart here.

For the compound `Oc1ccc(-c2nc3ccc(-c4ccc5nc(-c6ccc(O)cc6)[nH]c5c4)cc3[nH]2)cc1` [Example 5, 4-[2'-(4-Hydroxy-phenyl)-6,6'-dibenzimidazol-2-yl)-phenol hydrochloride], the MIC is over 128 µg/mL with E. cloacae P 99; over 128 µg/mL with P. aeroginosa BA; over 128 µg/mL in the assay on P. aeruginosa 799/61 (799/61, 20 h); at most 0.12 µg/mL with E. coli B; at most 0.12 µg/mL in the assay with E. coli 1346; at most 0.12 µg/mL with Staph. aureus 25923. The MIC with E. coli 1527 E (1527E, 20 h) was over 128 µg/mL; in the assay with E. faecalis 6 (Enterococcus faecalis, 6, 20 h) it was at most 0.06 µg/mL; in [1], over 128 µg/mL; in the assay on P. aeroguinosa 3351 (20 h) it was over 128 µg/mL; in the assay with K. oxytoca 1082E, over 128 µg/mL; in the assay on S. marcescens (20 h), over 128 µg/mL. Also, the MIC in the assay with E. coli 159 R was over 4 µg/mL; in the assay on S. aureus 853 it was 0.25 µg/mL; with E. coli DC2 it was at most 0.12 µg/mL; with Staph. aureus 887, at most 0.12 µg/mL; with S. aureus 101 it was over 32 µg/mL; in the assay with E. coli AS-19, 0.25 µg/mL. In addition, the MIC in the assay on B. subtilis ATCC 585369 is at most 0.12 µg/mL; in the assay on S. haemolyticus 91, 0.12 µg/mL; in the assay on E. coli H560 (H560, 20 h), over 128 µg/mL; in the assay with E. coli 25922 it was over 128 µg/mL; in the assay on Staph. haemolyticus 75, at most 0.06 µg/mL; in assay [2], 1 µg/mL. Also, the MIC in assay [3] was under 0.1 µg/mL.

With `Oc1ccc(-c2nc3ccc(-c4ccc5nc(-c6ccc(O)c(F)c6)[nH]c5c4)cc3[nH]2)cc1F` [Example 1, 2-Fluoro-4-[2'-(3-fluoro-4-hydroxy-phenyl)-6,6'-dibenzimidazol-2-yl]-phenol], the MIC in the assay with E. cloacae P 99 is over 64 µg/mL; with P. aeruginosa 799/61 (P. aeruginosa 799/61, DST agar, 35° C., 20 hours) it was over 64 µg/mL; in the assay with E. coli B, over 64 µg/mL; in the assay on E. coli 1346 it was 32 µg/mL (≈ 70.4 µM); in the assay on Staph. aureus 25923 it was 8 µg/mL (≈ 17.6 µM); in the assay with E. coli 1527 E (E. coli 1527 E, DST agar, 35° C., 20 hours) it was over 64 µg/mL. Further, the MIC is 2 µg/mL (≈ 4.4 µM) with E. faecalis 6 (Enterococcus faecalis, E. faecalis 6, DST agar, 35° C., 20 hours); over 64 µg/mL in assay [1]; over 64 µg/mL in the assay on P. aeroguinosa 3351 (P. aeroguinosa 3351, DST agar, 35° C., 20 hours); over 64 µg/mL in the assay on S. marcescens (S. marcescens, DST agar, 35° C., 20 hours); 8 µg/mL (≈ 17.6 µM) in the assay with E. coli 159 R; 16 µg/mL (≈ 35.2 µM) in the assay with S. aureus 853. For the same compound, the MIC was over 64 µg/mL with E. coli DC2; 16 µg/mL (≈ 35.2 µM) in the assay on Staph. aureus 887; 8 µg/mL (≈ 17.6 µM) in the assay with S. aureus 101; over 64 µg/mL with E. coli AS-19; 8 µg/mL (≈ 17.6 µM) in the assay on S. haemolyticus 91; 8 µg/mL (≈ 17.6 µM) in the assay with E. coli H560 (E. coli H560, DST agar, 35° C., 20 hours). In addition, the MIC with Staph. haemolyticus 75 worked out at 0.25 µg/mL (≈ 0.55 µM).
